Assay results taken from patent US20230143612A1 (Arbutus Biopharma Corporation, priority 2020, published 2023).

Each compound was assayed against PD-L1 His protein / PD-1 Fc protein (Homo sapiens, UniProt Q9NZQ7) (assay: HTRF Assay (PD-1/PD-L1 interaction)). Settings: PD-L1 His 6 nM, PD-1 Fc 6 nM.
Assay type: binding
Outline: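 HTRF: PD-L1 His (6 nM final), compound (3-fold dilutions, 20 μM to 0.001 μM final) and PD-1 Fc (6 nM final) preincubated 15 min at room temperature. Anti-human IgG-XL665 and anti-6HIS Tb cryptate (mixed at 6.7 nM and 0.35 nM) then added for 1 h at room temperature before reading.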

Chain of PD-L1 His protein / PD-1 Fc protein (Q9NZQ7 19-238 limits assumed): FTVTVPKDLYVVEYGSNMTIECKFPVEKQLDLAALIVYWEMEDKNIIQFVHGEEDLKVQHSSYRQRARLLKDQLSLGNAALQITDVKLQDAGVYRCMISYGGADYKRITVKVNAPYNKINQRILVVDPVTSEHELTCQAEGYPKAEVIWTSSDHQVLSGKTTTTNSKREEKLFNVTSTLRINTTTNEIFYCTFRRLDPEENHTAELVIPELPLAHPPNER

| SMILES | IC50 [nM] |
| --- | --- |
| COc1nc(-c2cccc(-c3cccc(-c4ccn5c(=O)c(CN6CCC6C(N)=O)cnc5c4)c3Cl)c2Cl)ccc1CNC[C@@H]1CCC(=O)N1 (mixture of isomers) [Example 259, 1-[[8-[2-Chloro-3-[2-chloro-3-[6-methoxy-5-[[[(2S)-5-oxopyrrolidin-2-yl]methylamino]methyl]-2-pyridyl]phenyl]phenyl]-4-oxo-pyrido[1,2-a]pyrimidin-3-yl]methyl]azetidine-2-carboxamide] | 2.3 |
| CN1CCC(NCCO)c2ccc(-c3cccc(-c4cccc(-c5ccc6c(n5)N(C)CCC6NCCO)c4Cl)c3Cl)nc21 (mixture of isomers) [Example 34, 2,2′-(((2,2′-Dichloro-[1,1′-biphenyl]-3,3′-diyl)bis(1-methyl-1,2,3,4-tetrahydro-1,8-naphthyridine-7,4-diyl))bis(azanediyl))bis(ethan-1-ol)] | 4.8 |
| COc1nc(-c2cccc(-c3cccc(-c4ccn5c(=O)c(CNC[C@@H]6CCC(=O)N6)cnc5c4)c3C)c2C(F)(F)F)ccc1CNC[C@@H]1CCC(=O)N1 [Example 96, 8-(3′-(6-Methoxy-5-(((((S)-5-oxopyrrolidin-2-yl)methyl)amino)methyl)pyridin-2-yl)-2-methyl-2′-(trifluoromethyl)-[1,1′-biphenyl]-3-yl)-3-(((((S)-5-oxopyrrolidin-2-yl)methyl)amino)methyl)-4H-pyrido[1,2-a]pyrimidin-4-one] | 68 |
| COc1nc(-c2cccc(-c3cccc(-c4cc5ncc(CNCCO)cc5cn4)c3Cl)c2Cl)ccc1CNC[C@@H]1CCC(=O)N1 [Example 334, (S)-5-((((6-(2,2′-Dichloro-3′-(3-(((2-hydroxyethyl)amino)methyl)-1,6-naphthyridin-7-yl)-[1,1′-biphenyl]-3-yl)-2-methoxypyridin-3-yl)methyl)amino)methyl)pyrrolidin-2-one] | 0.1 |
| COc1nc(-c2cccc(-c3cccc(-c4ccc5c(n4)OCCN(CCO)C5)c3Cl)c2Cl)ccc1CNC[C@@H]1CCC(=O)N1 [Example 267, (S)-5-((((6-(2,2′-Dichloro-3′-(4-(2-hydroxyethyl)-2,3,4,5-tetrahydropyrido[3,2-f][1,4]oxazepin-8-yl)-[1,1′-biphenyl]-3-yl)-2-methoxypyridin-3-yl)methyl)amino)methyl)pyrrolidin-2-one] | 0.2 |
| COc1nc(-c2cccc(-c3cccc(-c4ccn5c(=O)c(CNC[C@@H]6CCC(=O)N6)cnc5c4)c3Cl)c2Cl)cc(F)c1CNC[C@@H]1CCC(=O)N1 [Example 147, 8-(2,2′-Dichloro-3′-(4-fluoro-6-methoxy-5-(((((S)-5-oxopyrrolidin-2-yl)methyl)amino)methyl)pyridin-2-yl)-[1,1′-biphenyl]-3-yl)-3-(((((S)-5-oxopyrrolidin-2-yl)methyl)amino)methyl)-4H-pyrido[1,2-a]pyrimidin-4-one] | 3.9 |
| COC(=O)CNCc1c(C)nc2cc(-c3cccc(-c4cccc(-c5ccc(CNC[C@@H]6CCC(=O)N6)c(OC)n5)c4Cl)c3Cl)ccn2c1=O [Example 269, (S)-Methyl 2-(((8-(2,2′-dichloro-3′-(6-methoxy-5-((((5-oxopyrrolidin-2-yl)methyl)amino)methyl)pyridin-2-yl)-[1,1′-biphenyl]-3-yl)-2-methyl-4-oxo-4H-pyrido[1,2-a]pyrimidin-3-yl)methyl)amino)acetate] | 1 |
| Cc1c(-c2ccn3c(=O)c(CNC[C@@H]4CCC(=O)N4)cnc3c2)cccc1-c1cccc(-c2ccc(CNC[C@@H]3CCC(=O)N3)c(F)n2)c1Cl [Example 57, 8-(2′-Chloro-3′-(6-fluoro-5-(((((S)-5-oxopyrrolidin-2-yl)methyl)amino)methyl)pyridin-2-yl)-2-methyl-[1,1′-biphenyl]-3-yl)-3-(((((S)-5-oxopyrrolidin-2-yl)methyl)amino)methyl)-4H-pyrido[1,2-a]pyrimidin-4-one] | 3.1 |
| Cc1c(-c2ccn3c(=O)c(CNC[C@@H]4CCC(=O)N4)cnc3c2)cccc1-c1cccc(-c2ccc(CNC[C@@H]3CCC(=O)N3)c(Cl)c2)c1Cl [Example 67, 8-(2′,3″-Dichloro-2-methyl-4″-(((((S)-5-oxopyrrolidin-2-yl)methyl)amino)methyl)-[1,1′:3′,1″-terphenyl]-3-yl)-3-(((((S)-5-oxopyrrolidin-2-yl)methyl)amino)methyl)-4H-pyrido[1,2-a]pyrimidin-4-one] | 3.5 |
| COc1cc(-c2cccc(-c3cccc(-c4ccn5c(=O)c(CN[C@H]6C[C@](C)(O)C6)cnc5c4)c3Cl)c2Cl)cnc1CN[C@H]1C[C@](C)(O)C1 [Example 361, 8-(2,2′-Dichloro-3′-(6-((((1r,3r)-3-hydroxy-3-methylcyclobutyl)amino)methyl)-5-methoxypyridin-3-yl)-[1,1′-biphenyl]-3-yl)-3-((((1r,3r)-3-hydroxy-3-methylcyclobutyl)amino)methyl)-4H-pyrido[1,2-a]pyrimidin-4-one] | 39 |
| COc1nc(-c2cccc(-c3cccc(-c4cnc5c(N)c(CO)sc5c4)c3Cl)c2Cl)ccc1CNC[C@@H]1CCC(=O)N1 [Example 217, (S)-5-((((6-(3′-(3-Amino-2-(hydroxymethyl)-thieno[3,2-b]-pyridin-6-yl)-2,2′-dichloro-[1,1′-biphenyl]-3-yl)-2-methoxypyridin-3-yl)methyl)amino)methyl)pyrrolidin-2-one] | 3.5 |
| COc1nc(-c2cccc(-c3cccc(-c4cc(F)c(CNC[C@@H]5CCC(=O)N5)c(OC)n4)c3Cl)c2Cl)ccc1CNC[C@@H]1CCC(=O)N1 [Example 232, (S)-5-((((6-(2,2′-dichloro-3′-(4-fluoro-6-methoxy-5-(((((S)-5-oxopyrrolidin-2-yl)methyl)amino)methyl)pyridin-2-yl)-[1,1′-biphenyl]-3-yl)-2-methoxypyridin-3-yl)methyl)amino)methyl)pyrrolidin-2-one] | 63 |
| COc1nc(-c2cccc(-c3cccc(-c4ccc5nc(CN[C@H]6C[C@H](O)C6)cc(=O)n5c4)c3Cl)c2Cl)ccc1CNC[C@@H]1CCC(=O)N1 [Example 221, 7-(2,2′-dichloro-3′-(6-methoxy-5-(((((S)-5-oxopyrrolidin-2-yl)methyl)amino)methyl)pyridin-2-yl)-[1,1′-biphenyl]-3-yl)-2-((((1r,3r)-3-hydroxycyclobutyl)amino)methyl)-4H-pyrido[1,2-a]pyrimidin-4-one] | 0.6 |
| COc1nc(-c2cccc(-c3cccc(-c4cc5c(=O)n(C)c(CN(C)C[C@H](C)O)nn5c4)c3Cl)c2Cl)ccc1CNC[C@@H]1CCC(=O)N1 [Example 436, 6-(2,2′-dichloro-3′-(6-methoxy-5-(((((S)-5-oxopyrrolidin-2-yl)methyl)amino)methyl)pyridin-2-yl)-[1,1′-biphenyl]-3-yl)-2-((((S)-2-hydroxypropyl)(methyl)amino)methyl)-3-methylpyrrolo[2,1-f][1,2,4]triazin-4(3H)-one] | 26 |
| COc1nc(-c2cccc(-c3cccc(-c4ccn5c(=O)c(CNC(C)(C)CC(=O)O)cnc5c4)c3Cl)c2Cl)ccc1CNC[C@@H]1CCC(=O)N1 [Example 154, (S)-3-(((8-(2,2′-Dichloro-3′-(6-methoxy-5-((((5-oxopyrrolidin-2-yl)methyl)amino)-methyl)pyridin-2-yl)-[1,1′-biphenyl]-3-yl)-4-oxo-4H-pyrido[1,2-a]pyrimidin-3-yl)methyl)amino)-3-methylbutanoic acid] | 0.4 |
| COc1nc(-c2cccc(-c3cccc(N4Cc5ccc(CNC[C@@H]6CCC(=O)N6)cc5C4=O)c3Cl)c2Cl)ccc1CNC[C@@H]1CCC(=O)N1 [Example 483, 2-(2,2′-Dichloro-3′-(6-methoxy-5-(((((S)-5-oxopyrrolidin-2-yl)methyl)amino)methyl)pyridin-2-yl)-[1,1′-biphenyl]-3-yl)-6-(((((S)-5-oxopyrrolidin-2-yl)methyl)amino)methyl)isoindolin-1-one] | 0.1 |
| COc1nc(-c2cccc(-c3cccc(-c4ccn5c(=O)c(CN6CC(C(=O)O)C6)cnc5c4)c3Cl)c2Cl)ccc1CNCCO [Example 188, 1-((8-(2,2′-Dichloro-3′-(5-(((2-hydroxyethyl)amino)methyl)-6-methoxypyridin-2-yl)-[1,1′-biphenyl]-3-yl)-4-oxo-4H-pyrido[1,2-a]pyrimidin-3-yl)methyl)azetidine-3-carboxylic acid] | 0.1 |
